Blank lines part the entries; values can stand above or below the molecule they belong to.
Experiments:
Assay type in all cases: in vivo
[1] = tested on: Mice (C57BL/6N, male, 8-week-old), peripheral nerve disorders induced by various anti-cancer agents; assay: Experimental Example 4: pain threshold of mice given various anti-cancer agents, compound 9′, balance type pressing device (Ugo Basile)
Description: Group D was intravenously administered with compound 9′ (1 mg/kg body weight) of Reference Example B dissolved in solution of N methyl-D(−)-glucamine (0.01 mol/L) immediately before intraperitoneal administration of various anti-cancer agents. Pain threshold of each group was measured 3 week after the administration for paclitaxel and 1 week after the administration for the anti-cancer agents other than paclitaxel. Pain threshold is a weighed value (gram) at the time when a false escape response is observed by pressurizing the plantar part of the right hindlimb using a balance type pressing device (Ugo Basile). The values in the Table show mean±standard error of the weighed values, and n is the number of the mice in each group.

[2] = tested on: Mice (C57BL/6N, male, 8-week-old), peripheral nerve disorders induced by various anti-cancer agents; assay: Experimental Example 2: pain threshold of mice given various anti-cancer agents, balance type pressing device (Ugo Basile); settings: 1 week after
Description: Mice (C57BL/6N, male, 8-week-old) were divided into Group A, Group B, and Group C. As Group A, non-treated animals were used. […] Group C was intravenously administered with compound 72 (3 mg/kg body weight) of Reference Example A dissolved in an emulsion containing soybean oil, egg-yolk lecithin, glycerol and the like immediately before intraperitoneal administration of various anti-cancer agents. Thus, neither an enumerated anti- cancer agent nor Compound 72 was administered to Group A; an anti-cancer agent but not Compound 72 was administered to Groups B; and both an anti-cancer agent and Compound 72 were administered to Groups C. Pain threshold of each group was measured 1 week after the administration of the anti-cancer agent. Pain threshold is a weighed value (gram) at the time when a false escape response is observed by pressurizing the plantar part of the right hindlimb using a balance type pressing device (Ugo Basile). The values in the Table show mean ±standard error of the weighed values, and n is the number of the mice in each group.

[3] = tested on: Rat (Wistar, male, 5-week-old), peripheral nerve disorders induced by paclitaxel; assay: Experimental Example 3: pain threshold of paclitaxel-treated rats, Electronic von Frey
Description: Rat (Wistar, male, 5-week-old) were divided into Group A, Group B, and Group C. As Group A, non-treated animals were used. To Group B and Group C, paclitaxel is diluted with saline to a given concentration, and intraperitoneally administered at 6 mg/kg body weight for a total of 3 times at intervals of 1 to 2 days. Group C was intravenously administered with compound 72 (10 mg/kg body weight) of Reference Example A dissolved in an emulsion containing soybean oil, egg-yolk lecithin, glycerol and the like immediately before intraperitoneal administration of paclitaxel (total 3 times). Thus, neither paclitaxel nor Compound 72 was administered to Group A; paclitaxel but not Compound 72 was administered to Group B; and both paclitaxel and Compound 72 were administered to Group C. Pain threshold of each group was measured 2 weeks after first paclitaxel administration. Pain threshold is a weighed value (gram) at the time when an avoidance response is observed by pressurizing the plantar part of the right hindlimb using an Electronic von Frey (IITC Life Science). The values in the Table show mean ±standard error of the weighed values, and n is the number of the rats in each group.

[4] = tested on: Mice (C57BL/6N, male, 7-week-old), peripheral nerve disorders induced by paclitaxel; assay: Experimental Example 1: pain threshold of paclitaxel-treated mice, balance type pressing device (Ugo Basile); settings: mean ± standard error
Description: Mice (C57BL/6N, male, 7-week-old) were divided into Group A (6 mice), Group B (6 mice), and Group C (6 mice). Group B and Group C were intraperitoneally administered with paclitaxel (dissolved in ethanol:Cremophor EL:saline=0.5:0.5:9; 4 mg/kg body weight). As Group A, non-treated animals were used. Group C was intravenously administered with compound 72 (10 mg/kg body weight) of Reference Example A dissolved in an emulsion containing soybean oil, egg-yolk lecithin, glycerol and the like immediately before and 1 and 2 weeks after intraperitoneal administration of paclitaxel (total 3 times). Thus, neither paclitaxel nor Compound 72 was administered to Group A; paclitaxel but not Compound 72 was administered to Group B; and both paclitaxel and Compound 72 were administered to Group C. Pain threshold of each group was measured 3 weeks after paclitaxel administration to Group B and Group C. Pain threshold is a weighed value (gram) at the time when a false escape response is observed by pressurizing the plantar part of the right hindlimb using a balance type pressing device (Ugo Basile). The values in the Table show mean ±standard error of the weighed values.

Compound: N.N.O=C([O-])C1(C(=O)[O-])CCC1.[Pt+2] [Carboplatin, carboplatin, reference compound]
Pain threshold ([1]; Group B: anti-cancer agent alone i.p. (docetaxel 3, vincristine 0.1, cisplatin 3, carboplatin 40, bortezomib 0.4 mg/kg), 1 week after): 110.0 ± 6.8 g
Pain threshold ([2]; Group B: anti-cancer agent alone i.p. (docetaxel 3, vincristine 0.1, cisplatin 3, carboplatin 40, bortezomib 0.4 mg/kg), non-treated Group A 365.0 ± 17.8): 110.0 ± 6.8 g

Compound: CCOC(=O)C1=CCOC[C@H]1S(=O)(=O)Nc1ccc(F)cc1Cl [compound 9′, ethyl (3S)-3-[N-(2-chloro-4-fluorophenyl)sulfamoyl]-3,6-dihydro-2H-pyran-4-carboxylate]
Pain threshold ([1]; Group D: bortezomib 0.4 mg/kg i.p. + compound 9′ 1 mg/kg i.v. immediately before, 1 week after): 256.7 ± 26.5 g
Pain threshold ([1]; Group D: carboplatin 40 mg/kg i.p. + compound 9′ 1 mg/kg i.v. immediately before, 1 week after): 176.7 ± 16.7 g
Pain threshold ([1]; Group D: cisplatin 3 mg/kg i.p. + compound 9′ 1 mg/kg i.v. immediately before, 1 week after): 193.3 ± 26.2 g
Pain threshold ([1]; Group D: docetaxel 3 mg/kg i.p. + compound 9′ 1 mg/kg i.v. immediately before, 1 week after): 276.7 ± 38.1 g
Pain threshold ([1]; Group D: paclitaxel 10 mg/kg i.p. + compound 9′ 1 mg/kg i.v. immediately before, 3 week after, mean ± standard error): 406.7 ± 61.2 g
Pain threshold ([1]; Group D: vincristine 0.1 mg/kg i.p. + compound 9′ 1 mg/kg i.v. immediately before, 1 week after): 306.7 ± 73.5 g

Compound: CCOC(=O)C1=CCCC[C@H]1S(=O)(=O)Nc1ccc(F)cc1Cl [compound 72, ethyl (6R)-6-[N-(2-chloro-4-fluorophenyl)sulfamoyl]-1-cyclohexene-1-carboxylate]
Pain threshold ([2]; Group C: bortezomib 0.4 mg/kg i.p. + compound 72 3 mg/kg i.v. immediately before, mean ± standard error): 306.7 ± 24.0 g
Pain threshold ([2]; Group C: carboplatin 40 mg/kg i.p. + compound 72 3 mg/kg i.v. immediately before, mean ± standard error): 213.3 ± 13.3 g
Pain threshold ([2]; Group C: cisplatin 3 mg/kg i.p. + compound 72 3 mg/kg i.v. immediately before, mean ± standard error): 166.7 ± 18.5 g
Pain threshold ([2]; Group C: docetaxel 3 mg/kg i.p. + compound 72 3 mg/kg i.v. immediately before, mean ± standard error): 276.7 ± 17.4 g
Pain threshold ([2]; Group C: vincristine 0.1 mg/kg i.p. + compound 72 3 mg/kg i.v. immediately before, mean ± standard error): 289.2 ± 44.6 g
Pain threshold ([3]; Group C: paclitaxel 6 mg/kg i.p. 3 times + compound 72 10 mg/kg i.v. immediately before each, 2 weeks after first paclitaxel, mean ± standard error): 24.9 ± 0.9 g
Pain threshold ([4]; Group C: paclitaxel 4 mg/kg i.p. + compound 72 10 mg/kg i.v. immediately before and 1 and 2 weeks after (3 times), measured 3 weeks after paclitaxel): 441.7 ± 28.6 g

Pain threshold ([3]; Group B: paclitaxel 6 mg/kg i.p. 3 times alone, 2 weeks after first administration, non-treated Group A 25.8 ± 0.7): 15.4 ± 2.6 g
Pain threshold ([4]; Group B: paclitaxel 4 mg/kg i.p. alone, measured 3 weeks after, non-treated Group A 443.3 ± 32.8): 185.0 ± 19.3 g
Compound: CC(=O)O[C@H]1C(=O)[C@@]2(C)[C@H]([C@H](OC(=O)c3ccccc3)[C@]3(O)C[C@H](OC(=O)[C@H](O)[C@@H](NC(=O)c4ccccc4)c4ccccc4)C(C)=C1C3(C)C)[C@]1(OC(C)=O)CO[C@@H]1C[C@@H]2O [paclitaxel, reference compound]

From patent publication US8901171B2, “Compounds for suppressing a peripheral nerve disorder induced by an anti-cancer agent” (Takeda Pharmaceutical Company Limited, priority 2010, dated 2014)
